≈ marks a conversion by molar mass, not a printed value. Like-named read-outs stand apart in the source and are kept apart here.
What was measured:
CHI Log D procedure = format: physicochemical; conditions: for CHI Log D: pH 7.4; for chromatographic logD: pH 7.4, CHI Log D
[1] = target: T1, full-length beta-Catenin (Uniprot ID P35222) (Homo sapiens, UniProt P35222); assay: Fluorescence polarization IC50 (beta-catenin / 5FAM-TCF4 10-53 competition); format: binding
T1 construct: 10 nM full-length beta-Catenin (Uniprot ID P35222)
T1 sequence (P35222 1-781): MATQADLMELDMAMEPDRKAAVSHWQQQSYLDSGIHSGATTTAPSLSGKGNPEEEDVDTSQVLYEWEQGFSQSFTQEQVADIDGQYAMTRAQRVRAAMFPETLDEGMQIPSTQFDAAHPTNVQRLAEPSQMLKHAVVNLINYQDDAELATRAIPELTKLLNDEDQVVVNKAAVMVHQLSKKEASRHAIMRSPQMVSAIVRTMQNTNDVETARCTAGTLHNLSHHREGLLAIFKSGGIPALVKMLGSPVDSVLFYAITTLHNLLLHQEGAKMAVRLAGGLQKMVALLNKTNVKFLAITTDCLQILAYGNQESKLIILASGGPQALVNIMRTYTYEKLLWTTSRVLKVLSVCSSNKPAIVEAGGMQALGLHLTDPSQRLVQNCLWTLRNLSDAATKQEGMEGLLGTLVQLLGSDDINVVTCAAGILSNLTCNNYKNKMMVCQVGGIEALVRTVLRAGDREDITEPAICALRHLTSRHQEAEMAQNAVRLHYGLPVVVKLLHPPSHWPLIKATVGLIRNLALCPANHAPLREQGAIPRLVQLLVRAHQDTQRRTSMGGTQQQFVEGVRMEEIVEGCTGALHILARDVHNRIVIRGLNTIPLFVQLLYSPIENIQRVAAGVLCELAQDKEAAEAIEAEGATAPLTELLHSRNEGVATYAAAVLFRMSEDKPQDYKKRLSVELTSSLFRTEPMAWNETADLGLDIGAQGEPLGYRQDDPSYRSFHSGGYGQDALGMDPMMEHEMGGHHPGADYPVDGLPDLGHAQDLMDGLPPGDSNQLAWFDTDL

Solubility in PBS = format: physicochemical
Method in brief: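 PBS sample ultracentrifuged; supernatant run on HPLC vs. 50 μM peptide in DMSO standard. Solubility = (PBS peak area / DMSO peak area) × 50 uM.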

[2] = fluorescence polarization, read-out: beta-Catenin FP IC50
[3] = fluorescence polarization, beta-catenin, read-out: FP EC50

SMILES: CC(=O)N1CCC[C@]12CC=CCCCC1(CCCC=CCOC(=O)N(C)CCC[C@@](C)(C(=O)N[C@@H](Cc3ccsc3)C(=O)N[C@@H](Cc3csc4ccccc34)C(=O)N[C@@H](Cc3c[nH]cn3)C(N)=O)NC(=O)[C@H](CC(N)=O)NC(=O)[C@H](Cc3ccccc3)NC(=O)[C@H](C)NC(=O)[C@H](C)NC(=O)[C@H](CC(=O)O)NC(=O)[C@H](CC(=O)O)NC1=O)NC(=O)[C@H](CC(C)(C)C)NC(=O)[C@H](CC(=O)O)NC2=O (stereo partly drawn) [I-773, Ac-PL3-Asp-Npg-B5-Asp-Asp-Ala-Ala-Phe-Asn-SeN-3Thi-BztA-His-NH2]
- CHI Log D (CHI Log D procedure): 1.76
- IC50 ([1]; read-out: FP EC50): 167 nM
- IC50 ([1]; read-out: beta-Catenin FP IC50): 167 nM
- Solubility (Solubility in PBS): 47 µM (≈ 90.7 µg/mL)

SMILES: CC(=O)N1CCC[C@]12CC=CCCCC1(CCCC=CCCCCCC[C@@](C)(C(=O)N[C@@H](Cc3ccccc3)C(=O)N[C@@H](Cc3csc4ccccc34)C(=O)N[C@H](CO)C(N)=O)NC(=O)[C@H](CC(N)=O)NC(=O)[C@H](Cc3ccccc3)NC(=O)[C@H](C)NC(=O)[C@H](C)NC(=O)[C@H](CCC(=O)O)NC(=O)[C@H](CC(=O)O)NC1=O)NC(=O)[C@H](CC(C)C)NC(=O)[C@H](CC(=O)O)NC2=O (stereo partly drawn) [I-756, Ac-PL3-Asp-Leu-B5-Asp-Glu-Ala-Ala-Phe-Asn-S8-Phe-BztA-dSer-NH2]
- chromatographic logD (CHI Log D procedure): 2.61
- IC50 ([1]; read-out: beta-Catenin FP IC50): 56 nM
- Solubility (Solubility in PBS; Solubility (uM)): 49 µM (≈ 89.6 µg/mL)

SMILES: CC[C@H](C)[C@@H]1NC(=O)[C@H](CC(=O)O)NC(=O)[C@]2(CC=CCCCC3(CCCC=CCCCCCC[C@@](C)(C(=O)N[C@@H](Cc4ccccc4OC)C(=O)N[C@@H](Cc4csc5ccccc45)C(=O)N[C@@H](Cc4c[nH]cn4)C(N)=O)NC(=O)[C@H](CC(N)=O)NC(=O)[C@H](Cc4ccccc4)NC(=O)[C@H](C)NC(=O)[C@H](C)NC(=O)[C@H](CC(=O)O)NC(=O)[C@H](CC(=O)O)NC3=O)NC1=O)CCCN2C(C)=O (stereo partly drawn) [I-554, Ac-PL3-Asp-Ile-B5-Asp-Asp-Ala-Ala-Phe-Asn-S8-2OMeF-BztA-His-NH2]
- CHI Log D (CHI Log D procedure): 2.457
- IC50 [1, 2]: 27.5 nM
- IC50 ([1]; read-out: FP EC50): 27.5 nM
- Solubility (Solubility in PBS): 35 µM (≈ 66.3 µg/mL)

SMILES: CC[C@H](C)[C@@H]1NC(=O)[C@H](CC(=O)O)NC(=O)[C@]2(CC=CCCCC3(CCCC=CCCCCCC[C@@](C)(C(=O)N[C@@H](Cc4ccccc4)C(=O)N[C@@H](Cc4csc5ccccc45)C(=O)N[C@@H](CCC(N)=O)C(N)=O)NC(=O)[C@H](CCC(N)=O)NC(=O)[C@H](Cc4ccccc4)NC(=O)[C@H](C)NC(=O)[C@H](Cc4ccccc4)NC(=O)[C@H](CCC(=O)O)NC(=O)[C@H](CC(=O)O)NC3=O)NC1=O)CCCN2C(C)=O (stereo partly drawn) [I-649, Ac-PL3-Asp-Ile-B5-Asp-Glu-Phe-Ala-Phe-Gln-S8-Phe-BztA-Gln-NH2]
- CHI Log D (CHI Log D procedure): 2.677
- IC50 [1, 2]: 209 nM
- IC50 ([1]; read-out: FP EC50): 209 nM
- Solubility (Solubility in PBS): 41 µM (≈ 80.3 µg/mL)

SMILES: CC(=O)N1CCC[C@]12CC=CCCCC1(CCCC=CCCCOC(=O)N3CC[C@@](C(=O)N[C@@H](Cc4ccccc4Cl)C(=O)N[C@@H](Cc4csc5ccccc45)C(=O)N[C@H](C(N)=O)[C@@H](C)O)(C3)NC(=O)[C@H](CC(C)C)NC(=O)[C@H](Cc3ccccc3)NC(=O)[C@H](C)NC(=O)[C@H](C)NC(=O)[C@H](CC(=O)O)NC(=O)[C@H](CC(=O)O)NC1=O)NC(=O)[C@H](CC(C)(C)C)NC(=O)[C@H](CC(=O)O)NC2=O (stereo partly drawn) [I-1069, Ac-PL3-Asp-Npg-B5-Asp-Asp-Ala-Ala-Phe-Leu-PyrS2-2C1F-BztA-Thr-NH2]
- CHI Log D (CHI Log D procedure): 2.113
- IC50 [1, 3]: 920 nM
- IC50 ([1]; read-out: beta-Catenin FP IC50): 920 nM
- Solubility (Solubility in PBS): 10 µM (≈ 19.2 µg/mL)

SMILES: CC(=O)N1CCC[C@]12CC=CCCCC1(CCCC=CCCCCCC[C@@](C)(C(=O)N[C@@H](Cc3ccccc3)C(=O)N[C@@H](Cc3csc4ccccc34)C(=O)N[C@H](CO)C(N)=O)NC(=O)[C@H](CCC(N)=O)NC(=O)[C@H](Cc3ccccc3)NC(=O)[C@H](C)NC(=O)[C@H](C)NC(=O)[C@H](CCC(=O)O)NC(=O)[C@H](CC(=O)O)NC1=O)NC(=O)[C@H](C)NC(=O)[C@H](CC(=O)O)NC2=O (stereo partly drawn) [I-493, Ac-PL3-Asp-Ala-B5-Asp-Glu-Ala-Ala-Phe-Gln-S8-Phe-BztA-DSer-NH2]
- chromatographic logD (CHI Log D procedure): 2.2
- IC50 [1, 2]: 88 nM
- Solubility (Solubility in PBS): 50 µM (≈ 90 µg/mL)

SMILES: CC[C@H](C)[C@@H]1NC(=O)[C@H](CC(=O)O)NC(=O)[C@]2(CC=CCCCC3(CCCC=CCCCCCC[C@@](C)(C(=O)N[C@@H](Cc4ccccc4)C(=O)N[C@@H](Cc4csc5ccccc45)C(=O)N[C@@H](CCC(N)=O)C(N)=O)NC(=O)[C@H](CCC(N)=O)NC(=O)[C@H](Cc4ccccc4)NC(=O)[C@H](C)NC(=O)[C@H](C)NC(=O)[C@H](Cc4ccc(C(=O)O)cc4)NC(=O)[C@H](CC(=O)O)NC3=O)NC1=O)CCCN2C(C)=O (stereo partly drawn) [I-607, Ac-PL3-Asp-Ile-B5-Asp-4COOHF-Ala-Ala-Phe-Gln-S8-Phe-BztA-Gln-NH2]
- CHI Log D (CHI Log D procedure): 2.416
- IC50 [1, 2]: 253 nM
- IC50 ([1]; read-out: FP EC50): 253 nM
- Solubility (Solubility in PBS): 48 µM (≈ 93.4 µg/mL)

SMILES: CC(=O)N1CCC[C@]12CC=CCCCC1(CCCC=CCCCCCC[C@@](C)(C(=O)N[C@@H](Cc3c[nH]cn3)C(=O)N[C@@H](Cc3csc4ccccc34)C(=O)N[C@@H](CCC(N)=O)C(N)=O)NC(=O)[C@H](C)NC(=O)[C@H](Cc3ccccc3)NC(=O)[C@H](C)NC(=O)[C@H](C)NC(=O)[C@H](CC(=O)O)NC(=O)[C@H](CC(=O)O)NC1=O)NC(=O)[C@H](C)NC(=O)[C@H](CC(=O)O)NC2=O (stereo partly drawn) [I-362, Ac-PL3-Asp-Ala-B5-Asp-Asp-Ala-Ala-Phe-Ala-S8-His-BztA-Gln-NH2]
- chromatographic logD (CHI Log D procedure): 1.44
- IC50 ([1]; Table E2-1, read-out: beta-Catenin FP IC50): 3660 nM
- Solubility (Solubility in PBS; Solubility (uM)): 47 µM (≈ 82.7 µg/mL)

SMILES: CC[C@H](C)[C@@H]1NC(=O)[C@H](CC(=O)O)NC(=O)[C@]2(CC=CCCCC3(CCCC=CCCCCCC[C@@](C)(C(=O)N[C@@H](Cc4ccccc4)C(=O)N[C@@H](Cc4csc5ccccc45)C(=O)N[C@@H](CCC(N)=O)C(N)=O)NC(=O)[C@H](CCC(N)=O)NC(=O)[C@H](Cc4ccccc4)NC(=O)[C@H](C)NC(=O)[C@H](C)NC(=O)[C@H](CCC(=O)O)NC(=O)[C@H](CC(=O)O)NC3=O)NC1=O)CCCN2S(C)(=O)=O (stereo partly drawn) [I-711, MeSO2-PL3-Asp-Ile-B5-Asp-Glu-Ala-Ala-Phe-Gln-S8-Phe-BztA-Gln-NH2]
- CHI Log D (CHI Log D procedure): 2.132
- IC50 [1, 2]: 88 nM
- IC50 ([1]; read-out: FP EC50): 88 nM
- Solubility (Solubility in PBS): 48 µM (≈ 92.1 µg/mL)

SMILES: CC(=O)N1CCC[C@]12CC=CCCCC1(CCCC=CCCCCCC[C@@](C)(C(=O)N[C@@H](Cc3ccccc3Cl)C(=O)N[C@@H](Cc3csc4ccccc34)C(=O)N[C@@H](C(N)=O)[C@H](C)O)NC(=O)[C@H]([C@@H](C)O)NC(=O)[C@H](Cc3ccccc3)NC(=O)[C@H](C)NC(=O)[C@H](C)NC(=O)[C@H](CCC(=O)O)NC(=O)[C@H](CC(=O)O)NC1=O)NC(=O)[C@H](CC(C)(C)C)NC(=O)[C@H](CC(=O)O)NC2=O (stereo partly drawn) [I-1093, Ac-PL3-Asp-Npg-B5-Asp-Glu-Ala-Ala-Phe-Thr-S8-2C1F-BztA-dThr-NH2]
- CHI Log D (CHI Log D procedure): 3.22
- IC50 [1, 3]: 43 nM
- IC50 ([1]; read-out: beta-Catenin FP IC50): 43 nM
- Solubility (Solubility in PBS): 48 µM (≈ 90.1 µg/mL)

SMILES: CC(=O)N1CCC[C@]12CC=CCCCC1(CCCC=CCCCOC(=O)N3CC[C@@](C(=O)N[C@@H](Cc4ccsc4)C(=O)N[C@@H](Cc4csc5ccccc45)C(=O)N[C@@H](Cc4c[nH]cn4)C(N)=O)(C3)NC(=O)[C@H](CC(N)=O)NC(=O)[C@H](CC(=O)O)NC(=O)[C@H](C)NC(=O)[C@H](C)NC(=O)[C@H](CC(=O)O)NC(=O)[C@H](CC(=O)O)NC1=O)NC(=O)[C@H](CC(C)(C)C)NC(=O)[C@H](Cc1ccccc1)NC2=O (stereo partly drawn) [I-796, Ac-PL3-Phe-Npg-B5-Asp-Asp-Ala-Ala-Asp-Asn-PyrS2-3Thi-BztA-His-NH2]
- chromatographic logD (CHI Log D procedure): 2.45
- IC50 ([1]; read-out: FP EC50): 8140 nM
- Solubility (Solubility in PBS; Solubility (uM)): 35 µM (≈ 67.5 µg/mL)

— patent US20240116985A1, “STAPLED PEPTIDES AND METHODS THEREOF” (priority 2020, published 2024)
